The results in this text go back to US6967196B1, “Sulfonamide compounds and uses thereof” (Bristol-Myers Squibb Company, priority 1999, dated 2005).

A value given as a limit tells only on which side of the number the result lay.

The first experiment deals with amyloid β production in transfected H4 (human neuroglioma) cells stably expressing APP constructs. Briefly: In vitro cell-based assay of inhibitors of amyloid β production (ELISA). The following applies: transfected H4 cells stably expressing APP; approx. 16 h incubation; amyloid β in medium by ELISA; read-out: ACTIVITY (IC50, inhibition of amyloid β production). The protocol:
In Vitro Cell-Based Assay of Inhibitors of Amyloid β Production
Transfected H4 (human neuroglioma) cells stably expressing APP constructs are used to identify and assess inhibitors of Aβ production. In brief, cells lines are exposed to compounds, and the effect of each compound on amyloid β production is determined by measuring the amount of amyloid β produced using an enzyme linked immunosorbent assay (ELISA) that detects amyloid β (see, for example, Seubert et al., (1992) Nature, 359:325-327).
Transfected cells that stably express wild-type and variant forms of APP are plated in 96-well format plates at a density sufficient for the rapid detection of the secreted amyloid β (experimentally predetermined for a particular stable cell population). Cells are plated at least six hours prior to the introduction of the test compound at which time the growth medium is replaced by fresh medium containing the compound to be tested. All synthetic agents are initially screened at doses ranging from 10-100 μM. Higher dilutions of agents can be used to minimize cytotoxicity. Incubation of cells with a test compound continues for approximately 16 hours at which time aliquots of medium from each well are removed and assayed for amyloid β.
ELISA is carried out by methods known in the art (see, e.g., Haass et al., Antibodies: A Laboratory Manual, Harlow and lane, Editors, Cold Spring Harbor Press, 1988) The capture antibody is typically a mouse monoclonal (IgG1/kβ-APPa) which recognizes the carboxyl terminal epitope of amyloid β. The specificity of the capture antibody insures measurement of amyloid β without interference from other secreted APP fragments that share amino acid sequence (amyloid β 1-16) homology with amyloid β but lack the carboxy-terminal region. The detecting antibody is typically an affinity-purified rabbit polyclonal antibody that is specific for the amino terminus of amyloid β.
Results from test compounds are compared to results obtained when cells are treated with control agents. Amyloid β levels are determined by comparison to a standard curve obtained by subjecting a range of known amounts of amyloid β to the ELISA.
A compound is identified as “active” when it inhibits cellular production of amyloid β relative to levels in control samples by at least 50% at the initial tested concentration without significant cytotoxicity. Active compounds are then assayed in dose-response experiments to determine the lowest dose of compound necessary for inhibition of amyloid β production.
(An ELISA detects its analyte on a solid surface through an enzyme-linked reagent.)
The IC50 is the concentration at which inhibition is half-maximal. As to “2,2,2-trichloro-N-{2-[2-(1-{[(4-chlorophenyl)sulfonyl]-2,5-difluoroanilino}ethyl)phenoxy]ethyl}-N-ethylacetamide [Example 744]”, the IC50 is 100 to 500 nM.
On the same count and under the same terms, the value for “2,4,6-trichloro-N-{3-[2-(1-{[(4-chlorophenyl)sulfonyl]-2,5-difluoroanilino}ethyl)phenoxy]propyl}-N-methylbenzamide [Example 713]” was 100 to 500 nM.
The same measure, in the same setting: the result for “2,4,6-trichloro-N-{3-[2-(1-{[(4-chlorophenyl)sulfonyl]-2,5-difluoroanilino}ethyl)phenoxy]propyl}benzamide [Example 728]” reads 100 to 500 nM; that for “2,4-dichloro-N-{3-[2-(1-{[(4-chlorophenyl)sulfonyl]-2,5-difluoroanilino}ethyl)phenoxy]propyl}-5-fluoro-N-methylbenzamide [Example 750]”, 100 to 500 nM; that for “2,4-dichloro-N-{3-[2-(1-{[(4-chlorophenyl)sulfonyl]-2,5-difluoroanilino}ethyl)phenoxy]propyl}-5-fluorobenzamide [Example 682]”, 100 to 500 nM.
Take “2,4-dichloro-N-{3-[2-(1-{[(4-chlorophenyl)sulfonyl]-2,5-difluoroanilino}ethyl)phenoxy]propyl}-N-methylbenzenesulfonamide [Example 647]”: the IC50 lay in the range of 100 to 500 nM.
Same read-out and setting: the result for “2-((1R)-1-{[(4-chlorophenyl)-sulfonyl]-2,5-difluoroanilino}ethyl)benzyl benzyl(methyl)carbamate [Example 715]” reads 100 to 500 nM.
The same measure, in the same setting: the value for “2-((1R)-1-{[(4-chlorophenyl)sulfonyl]-2,5-difluoroanilino}ethyl)-5-fluorobenzyl 2-methoxyethylcarbamate [Example 729]” was 100 to 500 nM; that for “2-((1R)-1-{[(4-chlorophenyl)sulfonyl]-2,5-difluoroanilino}ethyl)-5-fluorobenzyl 2-phenylethylcarbamate [Example 640]” was 100 to 500 nM; that for “2-((1R)-1-{[(4-chlorophenyl)sulfonyl]-2,5-difluoroanilino}ethyl)-5-fluorobenzyl 3-fluorobenzylcarbamate [Example 764]” was 100 to 500 nM.
With “2-((1R)-1-{[(4-chlorophenyl)sulfonyl]-2,5-difluoroanilino}ethyl)-5-fluorobenzyl 4-(trifluoromethyl)benzylcarbamate [Example 658]”, the IC50 fell in the range of 100 to 500 nM.
As for “2-((1R)-1-{[(4-chlorophenyl)sulfonyl]-2,5-difluoroanilino}ethyl)-5-fluorobenzyl bis(2-methoxyethyl)carbamate [Example 760]”, the IC50 lay within 100 to 500 nM.
The same measure, in the same setting: the result for “2-((1R)-1-{[(4-chlorophenyl)sulfonyl]-2,5-difluoroanilino}ethyl)-5-fluorobenzyl sec-butylcarbamate [Example 795]” reads 100 to 500 nM; that for “2-((1R)-1-{[(4-chlorophenyl)sulfonyl]-2,5-difluoroanilino}ethyl)benzyl 1,2,3,4-tetrahydro-1-naphthalenylcarbamate [Example 660]”, 100 to 500 nM; that for “2-((1R)-1-{[(4-chlorophenyl)sulfonyl]-2,5-difluoroanilino}ethyl)benzyl 2,5-difluorobenzylcarbamate [Example 639]”, 100 to 500 nM.
The same measure, in the same setting: the result for “2-((1R)-1-{[(4-chlorophenyl)sulfonyl]-2,5-difluoroanilino}ethyl)benzyl 2-(4-chlorophenyl)ethylcarbamate [Example 731]” reads 100 to 500 nM; that for “2-((1R)-1-{[(4-chlorophenyl)sulfonyl]-2,5-difluoroanilino}ethyl)benzyl 2-(diethylamino)ethylcarbamate [Example 662]”, 100 to 500 nM.
“2-((1R)-1-{[(4-chlorophenyl)sulfonyl]-2,5-difluoroanilino}ethyl)benzyl 2-methoxyethylcarbamate [Example 669]”: the IC50 lay in the range of 100 to 500 nM.
The same measure, in the same setting: the result for “2-((1R)-1-{[(4-chlorophenyl)sulfonyl]-2,5-difluoroanilino}ethyl)benzyl 2-phenylethylcarbamate [Example 743]” reads 100 to 500 nM; that for “2-((1R)-1-{[(4-chlorophenyl)sulfonyl]-2,5-difluoroanilino}ethyl)benzyl 2-phenylpropylcarbamate [Example 799]”, 100 to 500 nM; that for “2-((1R)-1-{[(4-chlorophenyl)sulfonyl]-2,5-difluoroanilino}ethyl)benzyl 4-fluorobenzylcarbamate [Example 748]”, 100 to 500 nM.
The same measure, in the same setting: the result for “2-((1R)-1-{[(4-chlorophenyl)sulfonyl]-2,5-difluoroanilino}ethyl)benzyl butyl(methyl)carbamate [Example 720]” reads 100 to 500 nM; that for “2-((1R)-1-{[(4-chlorophenyl)sulfonyl]-2,5-difluoroanilino}ethyl)benzyl cyclohexylcarbamate [Example 675]”, 100 to 500 nM.
For the substance “2-((1R)-1-{[(4-chlorophenyl)sulfonyl]-2,5-difluoroanilino}ethyl)benzyl isopropylcarbamate [Example 674]”, the IC50 was 100 to 500 nM.
Same read-out and setting: the value for “2-((1R)-1-{[(4-chlorophenyl)sulfonyl]-2,5-difluoroanilino}ethyl)benzyl sec-butylcarbamate [Example 758]” was 100 to 500 nM.
As to “2-({[(4-chlorophenyl)sulfonyl]-2,5-difluoroanilino}methyl)phenyl acrylate [Example 681]”, the IC50 fell in the range of 100 to 500 nM.

The experiment is the same for the next values; noted with them: transfected H4 cells stably expressing APP; approximately 16 hours incubation; amyloid β in medium by ELISA; Table B; read-out: ACTIVITY (IC50, inhibition of amyloid β production).
Take “2-((1R)-1-{[(4-chlorophenyl)sulfonyl]-2,5-difluoroanilino}ethyl)benzyl 1-piperidinecarboxylate [Example 284]”: the IC50 lay within 25 to 50 nM.

The experiment is the same for the next values; noted with them: transfected H4 cells stably expressing APP; approximately 16 hours incubation; amyloid β in medium by ELISA; read-out: ACTIVITY (IC50, inhibition of amyloid β production).
Consider “1-{3-[2-({[(4-chlorophenyl)sulfonyl]-2,5-difluoroanilino}methyl)phenoxy]propyl}-1-methylpiperidinium iodide [Example 1037]”, for which the IC50 is greater than 500 nM.
Same read-out and setting: the value for “2,2,2-trichloro-N-{3-[2-({[(4-chlorophenyl)sulfonyl]-2,5-difluoroanilino}ethyl)phenoxy]propyl(methyl)carbamate [Example 876]” was 100 to 500 nM.
On the same count and under the same terms, the result for “2,2,2-trichloro-N-{3-[2-({[(4-chlorophenyl)sulfonyl]-2,5-difluoroanilino}methyl)phenoxy]propyl}-N-methylacetamide [Example 853]” reads 100 to 500 nM; that for “2,4-dichloro-N-{3-[2-(1-{[(4-chlorophenyl)sulfonyl]-2,5-difluoroanilino}ethyl)phenoxy]propyl}-N-methylbenzamide [Example 839]”, 100 to 500 nM; that for “2,4-dichloro-N-{3-[2-({[(4-chlorophenyl)sulfonyl]-2,5-difluoroanilino}methyl)phenoxy]propyl}-5-fluoro-N-methylbenzamide [Example 896]”, greater than 500 nM.
As for “2-((1R)-1-{[(4-chlorophenyl)sulfonyl]-2,5-difluoroanilino}ethyl)-5-fluorobenzyl 2-(1-pyrrolidinyl)ethylcarbamate [Example 914]”, the IC50 is greater than 500 nM.
Same read-out and setting: the result for “2-((1R)-1-{[(4-chlorophenyl)sulfonyl]-2,5-difluoroanilino}ethyl)benzyl 3,4-difluorobenzylcarbamate [Example 961]” reads greater than 500 nM; that for “2-((1R)-1-{[(4-chlorophenyl)sulfonyl]-2,5-difluoroanilino}ethyl)benzyl 3-fluorobenzylcarbamate [Example 910]”, greater than 500 nM.
Still for that read-out and setting: the result for “2-((1R)-1-{[(4-chlorophenyl)sulfonyl]-2,5-difluoroanilino}ethyl)benzyl (1S)-1-phenylethylcarbamate [Example 823]” reads 100 to 500 nM; that for “2-((1R)-1-{[(4-chlorophenyl)sulfonyl]-2,5-difluoroanilino}ethyl)benzyl benzyl[2-(dimethylamino)ethyl]carbamate [Example 838]”, 100 to 500 nM; that for “2-((1R)-1-{[(4-chlorophenyl)sulfonyl]-2,5-difluoroanilino}ethyl)benzyl benzylcarbamate [Example 825]”, 100 to 500 nM.
Still for that read-out and setting: the value for “2-((1R)-1-{[(4-chlorophenyl)sulfonyl]-2,5-difluoroanilino}ethyl)benzyl diethylcarbamate [Example 894]” was greater than 500 nM.
For “2-({[(4-chlorophenyl)sulfonyl]anilino}methyl)phenyl trifluoromethanesulfonate [Example 1004]”, the IC50 was greater than 500 nM.
